Target: T1, His6-NALP1 NBS mutant (G339E, K340A) (Homo sapiens, UniProt Q9C000, G339E/K340A)
T1 construct: made in house; host or cells: COS-7 cells, transient transfection, Ni-NTA purification
T1 sequence (Q9C000 1-1473 G339E/K340A): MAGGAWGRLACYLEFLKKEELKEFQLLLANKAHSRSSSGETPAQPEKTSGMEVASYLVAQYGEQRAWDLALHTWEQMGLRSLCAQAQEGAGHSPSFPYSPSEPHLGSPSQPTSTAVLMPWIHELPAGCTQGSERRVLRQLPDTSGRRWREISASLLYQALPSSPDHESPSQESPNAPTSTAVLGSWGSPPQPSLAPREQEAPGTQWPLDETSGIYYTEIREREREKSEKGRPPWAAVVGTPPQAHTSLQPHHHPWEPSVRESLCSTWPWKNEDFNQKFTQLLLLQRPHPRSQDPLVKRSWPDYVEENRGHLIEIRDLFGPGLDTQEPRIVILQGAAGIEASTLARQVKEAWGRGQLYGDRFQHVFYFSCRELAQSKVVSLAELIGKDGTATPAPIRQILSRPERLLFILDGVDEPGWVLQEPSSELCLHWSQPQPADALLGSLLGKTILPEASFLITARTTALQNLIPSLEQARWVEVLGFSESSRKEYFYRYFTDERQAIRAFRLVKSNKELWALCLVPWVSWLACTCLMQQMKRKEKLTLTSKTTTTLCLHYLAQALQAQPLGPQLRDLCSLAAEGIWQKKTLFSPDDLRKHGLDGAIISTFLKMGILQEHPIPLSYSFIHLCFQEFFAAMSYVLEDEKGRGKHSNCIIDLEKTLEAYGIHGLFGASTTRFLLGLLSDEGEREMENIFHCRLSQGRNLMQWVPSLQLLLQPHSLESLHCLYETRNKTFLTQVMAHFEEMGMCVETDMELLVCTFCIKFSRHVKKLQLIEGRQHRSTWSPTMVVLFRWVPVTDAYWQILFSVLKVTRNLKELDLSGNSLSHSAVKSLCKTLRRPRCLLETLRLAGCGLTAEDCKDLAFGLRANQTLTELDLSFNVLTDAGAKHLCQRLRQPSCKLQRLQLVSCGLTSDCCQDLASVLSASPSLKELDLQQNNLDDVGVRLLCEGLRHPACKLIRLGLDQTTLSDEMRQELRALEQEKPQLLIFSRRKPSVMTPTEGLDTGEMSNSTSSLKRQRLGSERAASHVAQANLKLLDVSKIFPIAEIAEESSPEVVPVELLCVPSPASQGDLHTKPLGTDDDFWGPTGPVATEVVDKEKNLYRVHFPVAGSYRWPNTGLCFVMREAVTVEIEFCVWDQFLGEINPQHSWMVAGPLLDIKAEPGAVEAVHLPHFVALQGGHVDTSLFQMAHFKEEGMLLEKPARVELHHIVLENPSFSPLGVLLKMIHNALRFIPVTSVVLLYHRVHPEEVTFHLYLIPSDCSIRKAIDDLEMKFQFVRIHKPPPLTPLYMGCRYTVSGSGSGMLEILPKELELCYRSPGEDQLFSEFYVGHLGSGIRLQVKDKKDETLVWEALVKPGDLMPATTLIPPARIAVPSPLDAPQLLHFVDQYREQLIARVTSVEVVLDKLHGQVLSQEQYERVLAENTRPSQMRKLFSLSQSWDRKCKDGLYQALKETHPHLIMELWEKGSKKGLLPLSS
Assay: Ni flashplate dATPα35S binding assay, NBS mutant His6-NALP1
Conditions: 8 nM dATPα35S displaced by non-radiolabeled dATP
Procedure: Production of purified NALP-Flashplate binding assay. NALP1 protein for in vitro binding assays was purified from transiently transfected cells. COS-7 cells were plated in DMEM, 10% fetal calf serum with amino acid supplements and antibiotics and allowed to grow to approximately 50% confluency. Large-scale preparations were performed in Cell Factories (NUNC) with approximately 600 μg plasmid DNA. Polyfect transfection reagent (Qiagen) was used as described by the manufacturer. After 24 hours, cells were collected by trypsinization, washed with fresh medium and then with PBS. Cells were lysed by resuspension in 10× cell volume of lysis buffer (140 mM NaCl, 0.1% Triton-X100, 0.1 mM DTT, 20 mM HEPES at pH 7.4 and protease inhibitor cocktail (Roche Diagnostics BmbH)). Lysates were centrifuged at approximately 7400×g for 30 minutes and supernatants were supplemented with glycerol to a final concentration of 10% and stored at −70° C. until purification. Protein concentrations were measured and samples normalized. Extracts were mixed with 1 ml Ni-NTA agarose equilibrated with the same buffer for 1 hour at 4° C. in the tube. Disposable columns were filled with the resin and flow-through collected. […] Reactions were stopped by aspirating solutions and washed once with Buffer B. Plates were counted in a Top Count scintillation counter (Packard).

- specific binding of dATP to NBS mutant NALP1: failed to achieve significant binding
Compound: Nc1ncnc2c1ncn2[C@H]1C[C@H](O)[C@@H](COP(=O)(O)OP(=O)(O)OP(=O)(O)O)O1 [dATP]

— patent US20040248775A1, “Methods for screening inhibitors of apoptosis” (Wyeth, priority 2003, published 2004)
